Where “and” joins values, the source holds several entries; their conditions need not be identical. Identical values can stand only once.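 Cultured in 96-well plates, cells were exposed to test compound for 48 hours across five concentrations. GI50 is the concentration that inhibits growth by half. At the TGI there is no net growth.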
Key:
Assay in all cases: growth of human tumour cells (NCI), 48 h
A549 NSCLC = system: A549 NSCLC
HOP-92 NSCLC = system: HOP-92 NSCLC
MOLT-4 leukemia = system: MOLT-4 leukemia
SN12C renal = system: SN12C renal
KM12 colon = system: KM12 colon
IGROV1 ovarian = system: IGROV1 ovarian
NCI-H460 lung = system: NCI-H460 lung
SNB-75 CNS = system: SNB-75 CNS
HOP-62 NSCLC = system: HOP-62 NSCLC
SW-620 colon = system: SW-620 colon

Compound | TGI (A549 NSCLC) | TGI (HOP-92 NSCLC) | TGI (MOLT-4 leukemia) | TGI (SN12C renal) | TGI (KM12 colon) | TGI (IGROV1 ovarian) | TGI (NCI-H460 lung) | TGI (SNB-75 CNS) | TGI (HOP-62 NSCLC) [µM] | TGI (SW-620 colon) | GI50 (A549 NSCLC) [µM] | GI50 (HOP-92 NSCLC) [µM] | GI50 (SN12C renal) [µM] | GI50 (KM12 colon) [µM] | GI50 (IGROV1 ovarian) [µM] | GI50 (NCI-H460 lung) [µM]
CC(C)c1cc2c(cc1S(=O)(=O)O)[C@@]1(C)CCC[C@@](C)(C(=O)O)C1CC2 (stereo partly specified) | > 100 µM | > 100 µM | > 100 µM | > 100 µM | > 100 µM | > 100 µM | > 100 µM | > 100 µM | > 100 | > 100 µM | – | – | – | – | – | –
O=C(N/N=C/c1ccc(Cl)cc1)c1c(Cl)c(Cl)c(Cl)c(Cl)c1-c1nc2ccccc2[nH]1 | > 100 µM | > 100 µM | > 100 µM | > 100 µM | > 100 µM | > 100 µM | > 100 µM | > 100 µM | > 100 | > 100 µM | – | – | – | – | – | –
COc1nncc2[nH]c(-c3ccccc3)cc12 | > 100 µM | > 100 µM | 18.1 µM | > 100 µM | > 100 µM | > 100 µM | > 100 µM | > 100 µM | > 100 | > 100 µM | – | – | – | – | – | –
C/C(=C\CBr)CCC(Br)C(C)(C)Br (stereo unspecified) | > 100 µM | > 100 µM | > 100 µM | > 100 µM | > 100 µM | > 100 µM | > 100 µM | > 100 µM | > 100 | > 100 µM | – | – | – | – | – | –
Cn1c2ccc3cc2c(=S)c2cc(ccc21)OCCOCCOCCOCCOCCOCCO3 | > 10 µM | > 10 µM | > 10 µM | > 10 µM | > 10 µM | > 10 µM | > 10 µM | > 10 µM | > 10 | > 10 µM | – | – | – | – | – | –
O=S(=O)(c1ccccc1)c1cccc2c1NCCC2 | > 100 µM | > 100 µM | > 100 µM | > 100 µM | > 100 µM | > 100 µM | > 100 µM | > 100 µM | > 100 | > 100 µM | – | – | – | – | – | –
CCCCCC1=CC(=O)C1(Cl)Cl | 71.5 µM | 63.3 µM | 15.3 µM | 72 µM | 27.9 µM | 48 µM | > 61.2 µM | 30.4 µM | 48.8 | 40.5 µM | – | – | – | – | – | –
COC(=O)C1=C(C(=O)OC)SC(=C2SCSC3=C2SC(C(=O)OC)=C(C(=O)OC)C32SC3=C(CCCC3)S2)S1 | > 100 µM | > 100 µM | > 100 µM | > 100 µM | > 100 µM | > 100 µM | > 100 µM | 36.3 µM | > 100 | > 100 µM | – | – | – | – | – | –
O=C(OCc1ccccc1)N1CCNCCN(C(=O)OCc2ccccc2)CCNCC1 | > 100 µM | > 100 µM | 50.4 µM | > 100 µM | 66.1 µM | > 100 µM | 49.4 µM | 85.2 µM | 33.4 | > 100 µM | – | – | – | – | – | –
CCOC(=O)c1c(CN2CCCC2)n(-c2ccccc2)c2cc(Br)c(O)cc12 | 32 µM | 44 µM | 41.7 µM | 30.2 µM | 32.2 µM | 33.5 µM | 32.9 µM | 36.7 µM | 26.7 | 42.5 µM | – | – | – | – | – | –
O=C1C=C[C@@H](COC2OC(CO)C(O)C(O)C2O)O1 (stereo partly specified) | 76.9 µM and 62.6 µM | 30.3 µM and 36 µM | 21.1 µM and 48.6 µM | 24.4 µM and 19 µM | 11.6 µM and 17.4 µM | 34.9 µM and 83.1 µM | 14.8 µM and 32.3 µM | 29.7 µM and 31.8 µM | > 100 | 16.1 µM and 15.8 µM | 16.7 | 14.3 | 8.38 | 3.16 | 14.2 | 3.68
CC(=O)N(C(=O)CC(=O)N1N=C(c2ccccc2)C(N=Nc2ccccc2[N+](=O)[O-])C1=O)c1ccc(Cl)cc1 (stereo unspecified) | > 10 µM | > 10 µM | > 10 µM | > 10 µM | > 10 µM | > 10 µM | > 10 µM | > 10 µM | > 10 | > 10 µM | – | – | – | – | – | –
Cc1cc(C)nc(NS(=O)(=O)c2ccc(NC(=O)c3ccc4nc5ccccc5c(Nc5ccc(S(N)(=O)=O)cc5)c4c3)cc2)n1 | > 100 µM | > 100 µM | > 100 µM | > 100 µM | > 100 µM | > 100 µM | > 100 µM | > 100 µM | > 100 | > 100 µM | – | – | – | – | – | –
COc1ccc(N=NC(=Nc2ccccc2)c2ccc(N(CCC#N)CCC#N)cc2)cc1 | > 100 µM | > 100 µM | > 100 µM | > 100 µM | > 100 µM | 89.3 µM | > 100 µM | > 100 µM | > 100 | > 100 µM | – | – | – | – | – | –
Nc1nccc(-c2c[nH]c3cc(Br)ccc23)n1 | 35.5 µM | 63.8 µM | 61.8 µM | 49.8 µM | 80.9 µM | > 100 µM | > 100 µM | > 100 µM | > 100 | > 100 µM | – | – | – | – | – | –
Cc1ccc(NC(=O)c2ccc(OP(=O)(O)Nc3ccc(C)cc3)cc2)cc1 | > 100 µM | > 100 µM | > 100 µM | > 100 µM | > 100 µM | > 100 µM | > 100 µM | > 100 µM | > 100 | > 100 µM | – | – | – | – | – | –
CCOC(=O)N1CCN(Cc2cc(=O)n3ccc(C)cc3n2)CC1 | > 100 µM | > 100 µM | > 100 µM | > 100 µM | > 100 µM | > 100 µM | > 100 µM | > 100 µM | > 100 | > 100 µM | – | – | – | – | – | –

Reference: PubChem BioAssay (NCI)
